The source of these data is patent publication US10988502B2, “Alpha-D-galactoside inhibitors of galectins” (GALECTO BIOTECH AB, priority 2016, dated 2021).

As usually defined, the Papp is the rate of passage across a membrane or cell layer, normalised by area and donor concentration. Read a high Papp as ready permeation. One may read the CLint scaled as a measure of how fast metabolising enzymes remove a compound, apart from limits set by blood flow. A lower CLint scaled goes with greater metabolic stability.

Like-named read-outs stand apart in the source and are kept apart here.

Data set [1] has as its target T1, Galectin-1 (Homo sapiens (Human), UniProt P09382). As to conditions: read-out: affinity to Galectin-1, cited from earlier work.
Target sequence in this assay (P09382 whole entry, species assumed): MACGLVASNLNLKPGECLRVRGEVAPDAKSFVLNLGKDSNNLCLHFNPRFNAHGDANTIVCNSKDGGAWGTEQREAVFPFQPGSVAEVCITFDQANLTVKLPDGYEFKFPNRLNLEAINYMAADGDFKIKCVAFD
In data set [2] the target is T1, Galectin-1. As to the kind of experiment: Fluorescence anisotropy assay, compound as inhibitor of galectin / fluorescein tagged saccharide probe interaction. Type of data set: binding. The method, then: (§1) The affinity of Example 1-32 for galectins were determined by a fluorescence anisotropy assay where the compound was used as an inhibitor of the interaction between galectin and a fluorescein tagged saccharide probe as described Sörme, P., Kahl-Knutsson, B., Huflejt, M., Nilsson, U. J., and Leffler H. (2004) Fluorescence polarization as an analytical tool to evaluate galectin-ligand interactions. Anal. Biochem. 334: 36-47, (Sörme et al., 2004) and Monovalent interactions of Galectin-1 By Salomonsson, Emma; Larumbe, Amaia; Tejler, Johan; Tullberg, Erik; Rydberg, Hanna; Sundin, Anders; Khabut, Areej; Frejd, Torbjorn; Lobsanov, Yuri D.; Rini, James M.; et al, From Biochemistry (2010), 49(44), 9518-9532, (Salonmonsson et al., 2010).
Target sequence in this assay (P09382 whole entry): as the sequence (P09382 whole entry, species assumed) above
(Polarisation of emitted light reports the rotation of a fluorescent probe.)

The target in the next data set is Galectin-3 (Homo sapiens (Human), UniProt P17931). The description is as above. Type of data set: binding. How it is done:
as §1

Data set [3] in a line: Permeability (Papp) Caco-2 A>B. The format is in vitro ADME. As to conditions: human, apical (A) to basolateral (B) direction. How it is done: (§2) The permeability (Papp) (Caco-2 A>B) was determined from the apical (A) to the basolateral (B) direction in adenocarcinoma cells from human colon. The human hepatic stability (CLint) was determined in human hepatocytes.
The nature of data set [4]: Human hepatic stability (CLint) in human hepatocytes. The format is in vitro ADME. As to conditions: * = no degradation observed under the assay conditions. The method, then:
as §2

The test system of a further data set is galectins. The conditions noted are these: cited from earlier work.

Chain of Galectin-3 (P17931 whole entry): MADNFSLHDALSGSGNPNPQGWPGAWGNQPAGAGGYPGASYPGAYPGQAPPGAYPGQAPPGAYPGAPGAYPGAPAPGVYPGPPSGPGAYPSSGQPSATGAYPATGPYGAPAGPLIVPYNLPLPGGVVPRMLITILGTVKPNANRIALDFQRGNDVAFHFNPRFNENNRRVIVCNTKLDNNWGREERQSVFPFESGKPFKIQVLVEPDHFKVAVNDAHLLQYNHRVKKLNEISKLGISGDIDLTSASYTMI

For `OCC1O[C@@H](S[C@@H]2O[C@H](CO)C(O)C(n3cc(-c4ccsc4)nn3)[C@H]2O)C(O)[C@@H](n2cc(-c3ccsc3)nn2)[C@H]1O` (stereo partly drawn), the Kd at Galectin-1 [1] (T. Delaine, 2016, ChemBioChem) is below 0.01 µM.
As to `OC[C@H]1O[C@H](Sc2ccc(Cl)c(Cl)c2)[C@H](O)[C@@H](n2cc(-c3ccsc3)nn2)[C@H]1O` [Example 1, 3,4-Dichlorophenyl 3-deoxy-3-[4-(3-thiophenyl)-1H-1,2,3-triazol-1-yl]-1-thio-α-D-galactopyranoside], the figures for the Kd on Galectin-1 [2] and on Galectin-3 were 0.14 µM and 2.6 µM, respectively. The molecule further had a Papp in data set [3] of 10.1 ×10⁻⁶ cm/s. Further, the CLint scaled in data set [4] came to 12.1 mL/min/kg.
As to `OC[C@H]1O[C@H](Sc2cnc(C(F)(F)F)c(Br)c2)[C@H](O)[C@@H](n2cc(-c3ccsc3)nn2)[C@H]1O` [Example 4, 5-Bromo-6-trifluoromethyl-pyridin-3-yl 3-deoxy-3-[4-(3-thiophenyl)-1H-1,2,3-triazol-1-yl]-1-thio-α-D-galactopyranoside], the Kd on Galectin-1 [2] came to 0.38 µM; on Galectin-3 it was 1.2 µM. The Papp in data set [3] was determined as 2.5 ×10⁻⁶ cm/s. The molecule further came in with a CLint scaled in data set [4] of 11.3 mL/min/kg.
On to `OCC1O[C@H](Sc2cc(Cl)c(F)c(Cl)c2)C(O)[C@@H](n2cc(-c3nccs3)nn2)[C@H]1O` (stereo partly drawn) [Example 5], for which, in data set [3], the Papp amounted to 10.5 ×10⁻⁶ cm/s. This molecule registered a CLint scaled in data set [4] of 0.38 mL/min/kg.
For `OC[C@H]1O[C@H](Sc2cc(Cl)c(F)c(Cl)c2)[C@H](O)[C@@H](n2cc(-c3cscn3)nn2)[C@H]1O` [Example 14, 3,5-Dichloro-4-fluoro-phenyl 3-deoxy-3-[4-(4-thiazolyl)-1H-1,2,3-triazol-1-yl]-1-thio-α-D-galactopyranoside], the Kd came out at 0.23 µM on Galectin-1 [2] and 6.2 µM at Galectin-3. In addition, in data set [3], the Papp was found to be 8.8 ×10⁻⁶ cm/s.
Turning to `OC[C@H]1O[C@H](Sc2ccc(Cl)c(Br)c2)[C@H](O)[C@@H](n2cc(-c3nccs3)nn2)[C@H]1O` [Example 25, 3-Bromo-4-chlorophenyl 3-deoxy-3-[4-(2-thiazolyl)-1H-1,2,3-triazol-1-yl]-1-thio-α-D-galactopyranoside], the Kd at Galectin-1 [2] came out at 0.44 µM; at Galectin-3 it was 4.4 µM.
Regarding `OC[C@H]1O[C@H](Sc2cnc(C(F)(F)F)c(Br)c2)[C@H](O)[C@@H](n2cc(-c3nccs3)nn2)[C@H]1O` [Example 26, 5-Bromo-6-trifluoromethyl-pyridine-3-yl 3-deoxy-3-[4-(2-thiazolyl)-1H-1,2,3-triazol-1-yl]-1-thio-α-D-galactopyranoside], the Kd at Galectin-1 [2] is 0.31 µM; at Galectin-3, 2 µM.
`OC[C@H]1O[C@H](Sc2ccc(F)c(Br)c2)[C@H](O)[C@@H](n2cc(-c3nccs3)nn2)[C@H]1O` [Example 27, 3-Bromo-4-fluoro-phenyl 3-deoxy-3-[4-(2-thiazolyl)-1H-1,2,3-triazol-1-yl]-1-thio-α-D-galactopyranoside]: the Kd at Galectin-1 [2] was found to be 0.49 µM; on Galectin-3, 4.7 µM.
`OC[C@H]1O[C@H](Sc2cc(Cl)ccc2Cl)[C@H](O)[C@@H](n2cc(-c3nccs3)nn2)[C@H]1O` [Example 28, 2,5-Dichlorophenyl 3-deoxy-3-[4-(2-thiazolyl)-1H-1,2,3-triazol-1-yl]-1-thio-α-D-galactopyranoside]: the figures for the Kd at Galectin-1 [2] and at Galectin-3 were 0.91 µM and 8.2 µM, respectively.
As for `OCC1O[C@H](Sc2ccc(Cl)c(Cl)c2)C(O)[C@@H](n2cc(-c3nc(Br)cs3)nn2)[C@H]1O` (stereo partly drawn) [Example 29, 3,4-dichlorophenyl 3-deoxy-3-[4-(4-bromo-2-thiazol-2-yl)-1H-1,2,3-triazol-1-yl]-1-thio-α-D-galactopyranoside], the Kd was 0.15 µM on Galectin-1 [2] and 0.81 µM on Galectin-3.
The matching figures for `OC[C@H]1O[C@H](Sc2ccc(Cl)c(Cl)c2)[C@H](O)[C@@H](n2cc(-c3ncc(F)s3)nn2)[C@H]1O` [Example 30, 3,4-Dichlorophenyl 3-deoxy-3-[4-(5-fluoro-thiazol-2-yl)-1H-1,2,3-triazol-1-yl]-1-thio-α-D-galactopyranoside]: 0.4 µM and 1.6 µM.
Consider `OC[C@H]1O[C@H](Sc2ccc(Cl)c(Cl)c2)[C@H](O)[C@@H](n2cc(-c3nc(Cl)cs3)nn2)[C@H]1O` [Example 31, 3,4-Dichlorophenyl 3-deoxy-3-[4-(4-chloro-thiazol-2-yl)-1H-1,2,3-triazol-1-yl]-1-thio-α-D-galactopyranoside], for which the Kd was 0.12 µM on Galectin-1 [2] and 0.46 µM on Galectin-3.
For the molecule `OC[C@H]1O[C@H](Sc2ccc(Cl)c(Cl)c2)[C@H](O)[C@@H](n2cc(-c3nc(C(F)(F)F)cs3)nn2)[C@H]1O` [Example 32, 3,4-Dichlorophenyl 3-deoxy-3-[4-(4-trifluoromethyl-thiazol-2-yl)-1H-1,2,3-triazol-1-yl]-1-thio-α-D-galactopyranoside], the results for the Kd at Galectin-1 [2] and at Galectin-3 were 0.79 µM and 0.21 µM, respectively.
With `O=C[C@H](O)[C@@H](O)[C@@H](O)[C@H](O)CO` [Galactose, D-galactose], in the data set with galectins (compared with lactose), the “affinity relative to lactose” value is given as 50-100 times lower. Further, the Kd on Galectin-1 [1] (Tejler et. al. 2009) is 10000 µM.
As to `OC[C@H]1O[C@@H](O[C@H]2[C@H](O)[C@@H](O)C(O)O[C@@H]2CO)[C@H](O)[C@@H](O)[C@H]1O` (stereo partly drawn) [Lactose], at galectins (reviewed by Leffler, 2001, Leffler et al., 2004, read-out: Kd for all galectins), the Kd is 100 to 1000 µM.
